One series can be described thus: Stability testing in PBS. The following applies: result in words, relative to unmodified ADH-1.
A short description of series [1]: Stability testing in human whole blood. The note with it: for stability in whole blood: human whole blood, result in words, relative to unmodified ADH-1.
The nature of the next series: Aqueous solubility. Format: physicochemical. The following applies: result in words.
For series [2] the following is noted: humans, following i.v. administration; cited from earlier work.

These results are taken from patent publication US20090131306A1, “CHEMICALLY MODIFIED CYCLIC PEPTIDES CONTAINING CELL ADHESION RECOGNITION (CAR) SEQUENCES AND USES THEREFOR” (ADHEREX TECHNOLOGIES, INC., priority 2007, published 2009).

*1 amine or outer side, *2 acyl side, *3 side chain or, on linkers, in order; H or OH if unused. Where a SMILES comes first, the peptide text is derived from it. Bridges are numbered along the chain shown (N, C = ends). [ ]: non-standard residue; d: D form. Phe(4-yl) = O=C([C@H](Cc1ccc([*:3])cc1)N[*:1])[*:2]

In the case of `CC(=O)N[C@H]1CSCC(=O)CSC[C@@H](C(N)=O)NC(=O)[C@H](C(C)C)NC(=O)[C@H](C)NC(=O)[C@H](Cc2c[nH]cn2)NC1=O` [ADH100706-T], the “stability in PBS” value in the series “Stability testing in PBS” was “failed to result in improved stability”. Further, the “stability in whole blood” value in series [1] is listed as “failed to result in improved stability”.
As to `CC(=O)N[C@H]1Cc2ccc(cc2)SC[C@@H](C(N)=O)NC(=O)[C@H](C(C)C)NC(=O)[C@H](C)NC(=O)[C@H](Cc2c[nH]cn2)NC1=O` [ADH-100716-T, 4R, 7S, 10S, 13S, 16S 16-Acetylamino-13-(1H-imidazol-4-ylmethyl)-7-isopropyl-10-methyl-6,9,12,15-tetraoxo-2-thia-5,8,11,14-tetraaza-bicyclo[16.2.2]docosa 1(21), 18(22), 19-triene-4-carboxylic acid amide] (Ac-[Phe(4-yl)]HAVC-NH2; thioether 1-5), the “stability in whole blood” value in series [1] was “improved blood stability”.
On to `CC(=O)N[C@H]1CSCc2cccc(c2)CSC[C@@H](C(N)=O)NC(=O)[C@H](C(C)C)NC(=O)[C@H](C)NC(=O)[C@H](Cc2c[nH]cn2)NC1=O` [ADH100705-T], for which the aqueous solubility result in the series “Aqueous solubility” was “relatively low”. In the series “Stability testing in PBS”, the “stability in PBS” value is given as “much less so”. Moreover, in series [1], the “stability in whole blood” value was “much less so”.
As for `CC(=O)N[C@H]1CSSC[C@@H](C(N)=O)NC(=O)[C@H](C(C)C)NC(=O)[C@H](C)NC(=O)[C@H](Cc2c[nH]cn2)NC1=O` [ADH-1, N-Ac-CHAVC-NH2], in series [2], the circulating half-life was 2.5 h and the “excreted unchanged in the urine” value is on record as 30%. Besides, in series [1] (human, whole blood), the half-life was ~2 h.
Consider `CC(=O)NC1CSCc2ccccc2CSCC(C(N)=O)NC(=O)[C@H](C(C)C)NC(=O)[C@H](C)NC(=O)[C@H](Cc2c[nH]cn2)NC1=O` (stereo partly drawn) [ADH100710-T, 8R, 11S, 14S, 17S, 20R 20-Acetylamino-17-(1H-imidazol-4-ylmethyl)-11-isopropyl-14-methyl-10,13,16,19-tetraoxo-5,7,8,10,11,12,13,14,15,16,17,18,19,20,21,23-hexadecahydro-9H-6,22-dithia-9,12,15,18-tetraaza-benzocyclohenicosene-8-carboxylic acid amide], for which the “stability in PBS” value in “Stability testing in PBS” was “stable”. For the same compound, in series [1], the “stability in whole blood” value was “stable”.
In the case of `CC(=O)N[C@H]1CSC[C@H](O)CSC[C@@H](C(N)=O)NC(=O)[C@H](C(C)C)NC(=O)[C@H](C)NC(=O)[C@H](Cc2c[nH]cn2)NC1=O` [ADH-100712-T], the “stability in PBS” value in the series “Stability testing in PBS” was “stable”. In series [1], the “stability in whole blood” value is “failed to show improved stability”.
For `CC(=O)NC1CSCC(O)CSCC(C(N)=O)NC(=O)[C@H](C(C)C)NC(=O)[C@H](C)NC(=O)[C@H](Cc2c[nH]cn2)NC1=O` (stereo partly drawn) [ADH100713-T, 3R, 6S, 9S, 12S, 15R 15-Acetylamino-19-hydroxy-12-(1H-imidazol-4-ylmethyl)-6-isopropyl-9-methyl-5,8,11,14-tetraoxo-1,17-dithia-4,7,10,13-tetraaza-cycloicosane-3-carboxylic acid amide], in “Stability testing in PBS”, the “stability in PBS” value is “stable”. Moreover, the “stability in whole blood” value in series [1] was “stable”.

What is called half-life is how long it takes for the measured level to halve. Low values mean fast loss, high ones slow loss.
